Data on 20 compounds can be found in patent US8044053B2, “Sulfonamide substituted pyrazoline compounds, their preparation and use as CB1 modulators” (Laboratories del Dr. Esteve, S.A., priority 2006, dated 2011).

The target of experiment [1] is CB1-receptor (UniProt P20272). The experiment in a line: In-vitro determination of affinity (binding) to CB1-receptors, radioligand [3H]-CP55940. Also noted: IC50; Ki; species or system human or rat. The note with it: Pharmacological Methods Part I. The method, then: (§1) I. In-Vitro Determination of Affinity to CB1/CB2-Receptors
(§2) The in-vitro determination of the affinity of the inventive substituted pyrazoline compounds to CB1/CB2-Rezeptors is carried out as described in the publication of Ruth A. Ross, Heather C. Brockie et al., “Agonist-inverse agonist characterisation at CB1 and CB2 cannabinoid receptors of L-759633, L759656 and AM630”, British Journal of Pharmacology, 126, 665-672, (1999), whereby the transfected human CB1 and CB2 receptors of Receptor Biology, Inc. are used. The radioligand used for both receptors is [^3H]-CP55940. The respective parts of the description is hereby incorporated by reference and forms part of the present disclosure.
(§3) Rat Cerebellum CB1 Binding
(§4) Binding affinity to CB1 receptor was evaluated according to a modification of the method described by Govaerts et al., Eur J Pharmac Sci 23, 233-243 (2004). The respective parts of the description is hereby incorporated by reference and forms part of the present disclosure.
(§5) Briefly, cerebellum from male wistar rats (250-300 g) were carefully dissected on ice and homogenates were prepared with Potter-Helveheim in a cold 50 mM Tris-HCl solution containing 5 mM MgCl2, 1 mM EDTA and 0.25 M sucrose, pH 7.4. The suspension was centrifuged at 1,000×g for 5 minutes. The supernatants were collected and centrifuged 50,000×g for 15 minutes. The resulting pellets were then resuspended in Tris-HCl buffer without sucrose, homogenised and incubated for 15 min at 37° C. in an orbital shaker bath and centrifuged again at 50,000×g for 15 min. Pellets were weighted, resuspended in Tris-HCl buffer without sucrose, homogenised with Ultraturrax at 13,500 rpm for 3×5 seconds and alicuoted in 0.9 ml volumes in Eppendorf tubes. Alicuotes were centrifuged at 20,800×g for 5 minutes, supernatants discarded and pellets were frozen at −80° C. until use. Total protein concentration was determined using the Bio-Rad Lowry method based kit. Competitive binding experiments were performed in presence of 1 nM [^3H]-CP 55,940 in siliconised glass tubes containing 100 μg protein/tube resuspended in 1 ml final volume of 50 mM Tris-HCl, 5 mM MgCl2, 1 mM EDTA, 0.5% (w/v) bovine serum albumin, pH 7.4. Compounds were present at various concentrations and the non specific binding was determined in the presence of 10 μM HU-210. After 1 hour incubation at 30° C., the suspension was rapidly filtered through 0.5% PEI pre-treated GF/B fiber filters on a 96-well harvester and washed 3 times with 3 ml ice-cold binding buffer without bovine serum albumin. Radioactivity on filters was measured with Wallac Winspectral 1414 counter by liquid scintillation in 6 ml Ecoscint H (National Diagnostics, U.K.). Assays were made in triplicates.
(§6) Binding data were analysed by non-linear regression with the software GraphPad Prism Version 3.03.
(§7) The binding of the pyrazoline compounds of general formulae I, Ia and Ib to CB1-receptors was determined according to the method described in the section Pharmacological Methods, Part I.

Experiment [2] has as its target CB1-receptor (UniProt P20272). Described as above. Also noted: % inh; 10^−7 M; compound at 10^−7 M; species or system human or rat. The conditions noted are these: compound at 10^−7 M. The method, then: as §1, §2, §3, §4, §5, §6, §7

By IC50 is commonly meant the midpoint of a concentration-inhibition curve. Broadly, the Ki is the equilibrium dissociation constant of an inhibitor or competing ligand from its target. A higher Ki goes with lower affinity. Regarding `O=S(=O)(NCC1=NN(c2ccc(Cl)cc2Cl)C(c2ccc(Cl)cc2)C1)c1ccsc1` (stereo not shown) [Example 9, Thiophene-3-sulfonic acid [5-(4-chloro-phenyl)-1-(2,4-dichloro-phenyl)-4,5-dihydro-1H-pyrazol-3-ylmethyl]-amide], at CB1-receptor [1], the IC50 worked out at 67.7 nM and the Ki came out at 30.6 nM. For the same compound, the “% inh. 10^−7 M” value at CB1-receptor [2] is 54.3%.

As to `CCCCS(=O)(=O)NCC1=NN(c2ccc(Cl)cc2Cl)C(c2ccc(Cl)cc2)C1` (stereo not shown) [Example 20, Butane-1-sulfonic acid [5-(4-chloro-phenyl)-1-(2,4-dichloro-phenyl)-4,5-dihydro-1H-pyrazol-3-ylmethyl]-amide], the “% inh. 10^−7 M” value at CB1-receptor [2] turned out to be 27.2%.

Compound `O=S(=O)(NCC1=NN(c2ccc(Cl)cc2Cl)C(c2ccc(Cl)cc2)C1)c1cccc(Cl)c1` (stereo not shown) [Example 1, 3-Chloro-N-[5-(4-chloro-phenyl)-1-(2,4-dichloro-phenyl)-4,5-dihydro-1H-pyrazol-3-ylmethyl]-benzenesulfonamide] displayed an IC50 at CB1-receptor [1] of 388 nM. Moreover, the “% inh. 10^−7 M” value at CB1-receptor [2] came to 27.1%. For `O=S(=O)(NCC1=NN(c2ccc(Cl)cc2Cl)C(c2ccc(Cl)cc2)C1)c1ccccc1Cl` (stereo not shown) [Example 23, 2-Chloro-N-[5-(4-chloro-phenyl)-1-(2,4-dichloro-phenyl)-4,5-dihydro-1H-pyrazol-3-ylmethyl]-benzenesulfonamide], the IC50 on CB1-receptor [1] was 183 nM. For the same compound, the “% inh. 10^−7 M” value at CB1-receptor [2] came to 54.9%.

At CB1-receptor [1], `CCS(=O)(=O)NCC1=NN(c2ccc(Cl)cc2Cl)C(c2ccc(Cl)cc2)C1` (stereo not shown) [Example 14, Ethanesulfonic acid [5-(4-chloro-phenyl)-1-(2,4-dichloro-phenyl)-4,5-dihydro-1H-pyrazol-3-ylmethyl]-amide] yielded an IC50 of 458 nM. Moreover, the “% inh. 10^−7 M” value at CB1-receptor [2] was found to be 76.6%. With `COc1cc(C)ccc1S(=O)(=O)NCC1=NN(c2ccc(Cl)cc2Cl)C(c2ccc(Cl)cc2)C1` (stereo not shown) [Example 36, N-[5-(4-Chloro-phenyl)-1-(2,4-dichloro-phenyl)-4,5-dihydro-1H-pyrazol-3-ylmethyl]-2-methoxy-4-methyl-benzenesulfonamide], the “% inh. 10^−7 M” value at CB1-receptor [2] worked out at 26.5%.

As for `N#Cc1cccc(S(=O)(=O)NCC2=NN(c3ccc(Cl)cc3Cl)C(c3ccc(Cl)cc3)C2)c1` (stereo not shown) [Example 10, N-((5-(4-chlorophenyl)-1-(2,4-dichlorophenyl)-4,5-dihydro-1H-pyrazol-3-yl)methyl)-3-cyanobenzenesulfonamid], on CB1-receptor [1], the IC50 is 70 nM. In addition, the “% inh. 10^−7 M” value on CB1-receptor [2] is recorded as 48.6%. For `Cc1cc(S(=O)(=O)NCC2=NN(c3ccc(Cl)cc3Cl)C(c3ccc(Cl)cc3)C2)c(C)cc1Cl` (stereo not shown) [Example 39, 4-Chloro-N-[5-(4-chloro-phenyl)-1-(2,4-dichloro-phenyl)-4,5-dihydro-1H-pyrazol-3-ylmethyl]-2,5-dimethyl-benzenesulfonamide], in that order: 20.6 nM and 53.2%. For `O=S(=O)(NCC1=NN(c2ccc(Cl)cc2Cl)C(c2ccc(Cl)cc2)C1)c1cccc(C(F)(F)F)c1` (stereo not shown) [Example 18, N-[5-(4-Chloro-phenyl)-1-(2,4-dichloro-phenyl)-4,5-dihydro-1H-pyrazol-3-ylmethyl]-3-trifluoromethyl-benzenesulfonamide] the same measures were 140 nM and 26.1%.

Take `CC(=O)Nc1ccc(S(=O)(=O)NCC2=NN(c3ccc(Cl)cc3Cl)C(c3ccc(Cl)cc3)C2)cc1Cl` (stereo not shown) [Example 41, N-(2-Chloro-4-{[5-(4-chloro-phenyl)-1-(2,4-dichloro-phenyl)-4,5-dihydro-1H-pyrazol-3-ylmethyl]-sulfamoyl}-phenyl)-acetamide]: on CB1-receptor [2], the “% inh. 10^−7 M” value is reported as 8.2%. On the same count and under the same terms, for `O=S(=O)(CC1CCCCC1)NCC1=NN(c2ccc(Cl)cc2Cl)C(c2ccc(Cl)cc2)C1` (stereo not shown) [Example 31, N-[5-(4-Chloro-phenyl)-1-(2,4-dichloro-phenyl)-4,5-dihydro-1H-pyrazol-3-ylmethyl]-C-cyclohexyl-methanesulfonamide] the value was 15.9%. As to `CCCS(=O)(=O)NCC1=NN(c2ccc(Cl)cc2Cl)C(c2ccc(Cl)cc2)C1` (stereo not shown) [Example 21, Propane-1-sulfonic acid [5-(4-chloro-phenyl)-1-(2,4-dichloro-phenyl)-4,5-dihydro-1H-pyrazol-3-ylmethyl]-amide], at CB1-receptor [1], the IC50 came to 263 nM. Also, the “% inh. 10^−7 M” value on CB1-receptor [2] came to 80.6%. For the compound `Cc1ccc(C)c(S(=O)(=O)NCC2=NN(c3ccc(Cl)cc3Cl)C(c3ccc(Cl)cc3)C2)c1` (stereo not shown) [Example 44, N-[5-(4-Chloro-phenyl)-1-(2,4-dichloro-phenyl)-4,5-dihydro-1H-pyrazol-3-ylmethyl]-2,5-dimethyl-benzenesulfonamide], at CB1-receptor [1], the concentration for half-maximal inhibition (IC50) was 15 nM and the Ki was determined as 7.3 nM. Moreover, the “% inh. 10^−7 M” value on CB1-receptor [2] is recorded as 54.1%. For `CCc1ccc(S(=O)(=O)NCC2=NN(c3ccc(Cl)cc3Cl)C(c3ccc(Cl)cc3)C2)cc1` (stereo not shown) [Example 43, N-[5-(4-Chloro-phenyl)-1-(2,4-dichloro-phenyl)-4,5-dihydro-1H-pyrazol-3-ylmethyl]-4-ethyl-benzenesulfonamide], the “% inh. 10^−7 M” value at CB1-receptor [2] turned out to be 26.7%.

Compound `CC1(C)C2CCC1(CS(=O)(=O)NCC1=NN(c3ccc(Cl)cc3Cl)C(c3ccc(Cl)cc3)C1)C(=O)C2` (stereo not shown) [Example 7, N-[5-(4-Chloro-phenyl)-1-(2,4-dichloro-phenyl)-4,5-dihydro-1H-pyrazol-3-ylmethyl]-C-(7,7-dimethyl-2-oxo-bicyclo[2.2.1]hept-1-yl)-methanesulfonamide] came in with an IC50 at CB1-receptor [1] of 184 nM. For the same compound, on CB1-receptor [2], the “% inh. 10^−7 M” value amounted to 11.9%. `Cc1ccc(F)cc1S(=O)(=O)NCC1=NN(c2ccc(Cl)cc2Cl)C(c2ccc(Cl)cc2)C1` (stereo not shown) [Example 38, N-[5-(4-Chloro-phenyl)-1-(2,4-dichloro-phenyl)-4,5-dihydro-1H-pyrazol-3-ylmethyl]-5-fluoro-2-methyl-benzenesulfonamide] showed an IC50 at CB1-receptor [1] of 4.4 nM. Further, on CB1-receptor [2], the “% inh. 10^−7 M” value is on record as 74.0%.

As to `O=S(=O)(NCC1=NN(c2ccc(Cl)cc2Cl)C(c2ccc(Cl)cc2)C1)c1ccc(OC(F)(F)F)cc1` (stereo not shown) [Example 16, N-[5-(4-Chloro-phenyl)-1-(2,4-dichloro-phenyl)-4,5-dihydro-1H-pyrazol-3-ylmethyl]-4-trifluoromethoxy-benzenesulfonamide], the “% inh. 10^−7 M” value on CB1-receptor [2] is recorded as 88.0%.

`O=S(=O)(NCC1=NN(c2ccc(Cl)cc2Cl)C(c2ccc(Cl)cc2)C1)c1csc2ccccc12` (stereo not shown) [Example 37, Benzo[b]thiophene-3-sulfonic acid [5-(4-chloro-phenyl)-1-(2,4-dichloro-phenyl)-4,5-dihydro-1H-pyrazol-3-ylmethyl]-amide]: at CB1-receptor [2], the “% inh. 10^−7 M” value was 27.2%. Same read-out and setting: for `COC(=O)CCc1ccc(S(=O)(=O)NCC2=NN(c3ccc(Cl)cc3Cl)C(c3ccc(Cl)cc3)C2)cc1` (stereo not shown) [Example 35, 3-(4-{[5-(4-Chloro-phenyl)-1-(2,4-dichloro-phenyl)-4,5-dihydro-1H-pyrazol-3-ylmethyl]-sulfamoyl}-phenyl)-propionic acid methyl ester] the value was 8.5%. For the compound `CCOc1ccc(C2CC(CNS(=O)(=O)c3cc(C)ccc3C)=NN2c2ccc(Cl)cc2Cl)cc1` (stereo not shown) [Example 103, N-[1-(2,4-Dichloro-phenyl)-5-(4-ethoxy-phenyl)-4,5-dihydro-1H-pyrazol-3-ylmethyl]-2,5-dimethyl-benzenesulfonamide], on CB1-receptor [1], the IC50 worked out at 12.1 nM and affinity was put at a Ki of 5.3 nM.
